Measured values published in ChEMBL document CHEMBL1201862, “PubChem BioAssay data set” (2004).
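Dose response: 5 concentrations. Exposure: 48 h. Format: 96-well plates. Endpoint: linear interpolation; highest concentration if not reached. GI50: concentration for 50% inhibition of growth.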 The source made the active and inactive calls. Cut-off read from the data, not from the text of the source: active = GI50 up to about 1.1 µM and inactive = higher.

Legend:
Assay in all cases: NCI tumour cell line growth inhibition, 48 h
786-0 = tested on: 786-0
A549 = tested on: A549
COLO 205 = tested on: COLO 205
HCT-116 = tested on: HCT-116
HCT-15 = tested on: HCT-15
LOX IMVI = tested on: LOX IMVI
MDA-MB-231 = tested on: MDA-MB-231
MOLT-4 = tested on: MOLT-4
NCI-H23 = tested on: NCI-H23
RPMI-8226 = tested on: RPMI-8226
RXF 393 = tested on: RXF 393
SF-295 = tested on: SF-295
SF-539 = tested on: SF-539
SK-MEL-5 = tested on: SK-MEL-5
SK-OV-3 = tested on: SK-OV-3
SNB-19 = tested on: SNB-19
SW-620 = tested on: SW-620
UACC-62 = tested on: UACC-62
SK-MEL-28 = tested on: SK-MEL-28
SR = tested on: SR

| Compound | GI50 (786-0) | GI50 (A549) | GI50 (COLO 205) | GI50 (HCT-116) | GI50 (HCT-15) [µM] | GI50 (LOX IMVI) | GI50 (MDA-MB-231) | GI50 (MOLT-4) | GI50 (NCI-H23) | GI50 (RPMI-8226) | GI50 (RXF 393) | GI50 (SF-295) | GI50 (SF-539) | GI50 (SK-MEL-5) | GI50 (SK-OV-3) | GI50 (SNB-19) | GI50 (SW-620) | GI50 (UACC-62) | GI50 (SK-MEL-28) | GI50 (SR) |
| --- | --- | --- | --- | --- | --- | --- | --- | --- | --- | --- | --- | --- | --- | --- | --- | --- | --- | --- | --- | --- |
| O=c1ccc2nc3ccc(O)cc3oc-2c1 | 13.4 µM (inactive) | 4.27 µM (inactive) | 6.25 µM (inactive) | 16.4 µM (inactive) | 13.5 | 2.75 µM (inactive) | > 100 µM (inactive) | 34 µM (inactive) | 3.56 µM (inactive) | 3.3 µM (inactive) | > 100 µM (inactive) | 8.49 µM (inactive) | 4.7 µM (inactive) | 1.6 µM (inactive) | > 100 µM (inactive) | 38.6 µM (inactive) | 13.2 µM (inactive) | 2.7 µM (inactive) | – | – |
| Cc1ccccc1NC(=O)Cc1csc(N/N=C2\C(=O)Nc3ccccc32)n1 | 43 µM (inactive) | 48.9 µM (inactive) | > 100 µM (inactive) | 43.7 µM (inactive) | 37.2 | 64.1 µM (inactive) | 29.7 µM (inactive) | 29.7 µM (inactive) | 38.4 µM (inactive) | 31 µM (inactive) | 28.8 µM (inactive) | 16.7 µM (inactive) | 17.9 µM (inactive) | 46.8 µM (inactive) | – | 71.8 µM (inactive) | 1 µM (active) | 49.9 µM (inactive) | 1 µM (active) | – |
| CC1CCC(=O)C(C(=O)CC2CC(=O)N(C)C(=O)C2)C1 (stereo not drawn) | > 100 µM (inactive) | > 100 µM (inactive) | > 100 µM (inactive) | > 100 µM (inactive) | > 100 | > 100 µM (inactive) | > 100 µM (inactive) | > 100 µM (inactive) | > 100 µM (inactive) | > 100 µM (inactive) | > 100 µM (inactive) | > 100 µM (inactive) | > 100 µM (inactive) | > 100 µM (inactive) | > 100 µM (inactive) | > 100 µM (inactive) | > 100 µM (inactive) | > 100 µM (inactive) | > 100 µM (inactive) | – |
| O=C(O)CCSCc1ccc(I)cc1 | > 100 µM (inactive) | > 100 µM (inactive) | > 100 µM (inactive) | > 100 µM (inactive) | > 100 | > 100 µM (inactive) | > 100 µM (inactive) | > 100 µM (inactive) | > 100 µM (inactive) | > 100 µM (inactive) | 96.4 µM (inactive) | > 100 µM (inactive) | – | > 100 µM (inactive) | > 100 µM (inactive) | > 100 µM (inactive) | > 100 µM (inactive) | > 100 µM (inactive) | > 100 µM (inactive) | – |
| COC(=O)/C(=N/NC(N)=O)C(C(=O)OC)C(=O)C(=O)Nc1ccc(Cl)cc1 (stereo not drawn) | > 100 µM (inactive) | > 100 µM (inactive) | > 100 µM (inactive) | > 70.6 µM (inactive) | > 86.5 | > 83.2 µM (inactive) | – | > 100 µM (inactive) | > 100 µM (inactive) | > 100 µM (inactive) | > 100 µM (inactive) | > 100 µM (inactive) | > 100 µM (inactive) | > 100 µM (inactive) | > 100 µM (inactive) | > 100 µM (inactive) | > 100 µM (inactive) | > 100 µM (inactive) | > 100 µM (inactive) | 20.8 µM (inactive) |
| O=C(CCCCCCCCCCc1ccccc1)C1=C(O)CC(O)CC1=O (stereo not drawn) | 58.1 µM (inactive) | 42.1 µM (inactive) | 45.2 µM (inactive) | 43.3 µM (inactive) | – | 48.2 µM (inactive) | – | 40.5 µM (inactive) | 56.4 µM (inactive) | 34.8 µM (inactive) | > 100 µM (inactive) | 56.8 µM (inactive) | 86.7 µM (inactive) | 48 µM (inactive) | > 100 µM (inactive) | 88.5 µM (inactive) | 76.9 µM (inactive) | 59.8 µM (inactive) | 72.4 µM (inactive) | 40.9 µM (inactive) |
| CC(C)C(/C=C/c1ccc(Cl)cc1)=N\NC(=S)NN | 20.5 µM (inactive) | 31.6 µM (inactive) | 24.2 µM (inactive) | 2.99 µM (inactive) | 5.98 | 7.76 µM (inactive) | > 100 µM (inactive) | 4.15 µM (inactive) | 20 µM (inactive) | 11.7 µM (inactive) | 15 µM (inactive) | 22.1 µM (inactive) | 25.1 µM (inactive) | 33 µM (inactive) | 33.7 µM (inactive) | 76.4 µM (inactive) | 14.1 µM (inactive) | 4.51 µM (inactive) | 39.7 µM (inactive) | – |
| COC(=O)CC1N/C(=N\C#N)N(CCc2c[nH]c3ccccc23)C1=O (stereo not drawn) | > 100 µM (inactive) | > 100 µM (inactive) | > 100 µM (inactive) | > 100 µM (inactive) | > 100 | > 100 µM (inactive) | – | > 100 µM (inactive) | > 100 µM (inactive) | > 100 µM (inactive) | > 100 µM (inactive) | > 100 µM (inactive) | > 100 µM (inactive) | > 100 µM (inactive) | > 100 µM (inactive) | > 100 µM (inactive) | > 100 µM (inactive) | > 100 µM (inactive) | > 100 µM (inactive) | 94.2 µM (inactive) |
| O=c1cc(-c2ccccc2)[nH]c2cc(F)cc(F)c12 | 52.4 µM (inactive) | 20.8 µM (inactive) | 16.1 µM (inactive) | 36.2 µM (inactive) | 6.59 | 55.8 µM (inactive) | – | 75.5 µM (inactive) | 48.6 µM (inactive) | 30.1 µM (inactive) | 29.2 µM (inactive) | 25.1 µM (inactive) | 24.4 µM (inactive) | 10.1 µM (inactive) | 19.7 µM (inactive) | – | 14.4 µM (inactive) | 16.1 µM (inactive) | 27.2 µM (inactive) | 3.75 µM (inactive) |
| CCCCN(c1ccccc1)c1ncnc2c1cnn2C | 53.3 µM (inactive) | 51.2 µM (inactive) | > 100 µM (inactive) | 40.6 µM (inactive) | 35.4 | 46.3 µM (inactive) | 26.6 µM (inactive) | 8.69 µM (inactive) | 30.1 µM (inactive) | 14.3 µM (inactive) | 23.4 µM (inactive) | 32.5 µM (inactive) | – | > 100 µM (inactive) | 50.1 µM (inactive) | 89.9 µM (inactive) | 29.2 µM (inactive) | 31.2 µM (inactive) | 38.6 µM (inactive) | – |
| CN(C)c1ccc2nc(CC(O)(C(F)(F)F)C(F)(F)F)ccc2c1 | > 10 µM (inactive) | > 10 µM (inactive) | > 10 µM (inactive) | > 10 µM (inactive) | > 10 | > 10 µM (inactive) | > 10 µM (inactive) | > 10 µM (inactive) | > 10 µM (inactive) | > 10 µM (inactive) | > 10 µM (inactive) | > 10 µM (inactive) | > 10 µM (inactive) | > 10 µM (inactive) | > 10 µM (inactive) | > 10 µM (inactive) | > 10 µM (inactive) | > 10 µM (inactive) | > 10 µM (inactive) | – |
| O=C(CN1C(=O)CC(c2ccccc2)(c2ccccc2)C1=O)N1CCN(CCO)CC1 | > 100 µM (inactive) | > 100 µM (inactive) | > 100 µM (inactive) | > 100 µM (inactive) | > 100 | > 100 µM (inactive) | > 100 µM (inactive) | > 100 µM (inactive) | > 100 µM (inactive) | > 100 µM (inactive) | > 100 µM (inactive) | > 100 µM (inactive) | > 100 µM (inactive) | > 100 µM (inactive) | > 100 µM (inactive) | > 100 µM (inactive) | > 100 µM (inactive) | > 100 µM (inactive) | > 100 µM (inactive) | – |
| Cc1nc(C(N)=S)sc1C(=O)CC(=O)C(=O)Nc1c(C(C)C)cccc1C(C)C | 50.4 µM (inactive) | 35.8 µM (inactive) | 43.3 µM (inactive) | 38.7 µM (inactive) | 32.6 | 49.3 µM (inactive) | – | 41 µM (inactive) | 30.1 µM (inactive) | 55.8 µM (inactive) | 20.3 µM (inactive) | 29.2 µM (inactive) | 44.4 µM (inactive) | 54.6 µM (inactive) | 36 µM (inactive) | 45.8 µM (inactive) | 48.9 µM (inactive) | 42.5 µM (inactive) | > 100 µM (inactive) | 26.4 µM (inactive) |
| CCCCCCCCCC(=O)OCC1OC(n2cc(F)c(=O)[nH]c2=O)C(N)C(OC(=O)CCCCCCCCC)C1O (stereo not drawn) | 18.4 µM (inactive) | 18 µM (inactive) | 17.5 µM (inactive) | 18.2 µM (inactive) | 18.2 | 16.5 µM (inactive) | – | 14.1 µM (inactive) | 18.7 µM (inactive) | 21.5 µM (inactive) | 15.9 µM (inactive) | 17.8 µM (inactive) | 18.4 µM (inactive) | 22.6 µM (inactive) | 60 µM (inactive) | 17.4 µM (inactive) | 17.4 µM (inactive) | 17.9 µM (inactive) | 16.7 µM (inactive) | 19.7 µM (inactive) |
| CCN(CC)C(=O)Cc1[nH][nH]c(=O)c1C(=O)N(CC)CC | > 100 µM (inactive) | > 100 µM (inactive) | > 100 µM (inactive) | > 100 µM (inactive) | > 100 | > 100 µM (inactive) | – | > 100 µM (inactive) | > 100 µM (inactive) | > 100 µM (inactive) | > 100 µM (inactive) | > 100 µM (inactive) | > 100 µM (inactive) | – | > 100 µM (inactive) | > 100 µM (inactive) | > 100 µM (inactive) | > 100 µM (inactive) | > 100 µM (inactive) | > 100 µM (inactive) |
